Data as given in US5010105A, “Antihypercholesterolemic compounds” (Merck & Co., Inc., priority 1990, dated 1991).

Test system: HMG-CoA reductase
Experiment: intrinsic HMG-CoA reductase inhibition, in vitro protocol of J. Med. Chem., 28, p. 347-358 (1985)
Type: biochemical
Conditions: IC50 of test compound compared with compactin (mevastatin) determined simultaneously; compactin assigned a value of 100
Procedure: The intrinsic HMG-CoA reductase inhibition activity of the claimed compounds is measured in the in vitro protocol published in J. Med. Chem., 28, p. 347-358 (1985).
For estimation of relative inhibitory potencies, compactin (i.e., mevastatin) was assigned a value of 100 and the IC50 value of the test compound was compared with that of compactin determined simultaneously in the published in vitro protocol.

relative potency: 186
Structure (SMILES): CCC(C)(C)C(=O)O[C@H]1C[C@@H](C)C[C@]23C[C@H]2C(=O)[C@H](C)[C@H](CC[C@@H]2C[C@@H](O)CC(=O)O2)[C@@H]13 [Example 1, 6(R)-[2-[2(R),6(S)-dimethyl-8(S)-(2,2-dimethylbutyryloxy)-α-4,4a-methyleno-1,2,3,4,4a,5,6,7,8,8a(R)-decahydro-3-oxo-naphthyl-1(S)]ethyl]-4(R)-hydroxy-3,4,5,6-tetrahydro-2H-pyran-2-one]
